pIC50: −log10 of the molar value.
How the values were obtained:
[1] = target: T1, IL-17A(FLAG-Tagged): IL-17RA(His-Tagged) (Homo sapiens, UniProt Q16552, K93Q); assay: IL-17A(FLAG-tagged):IL-17RA(His-tagged) binding disruption Eu-HTRF assay, Protocol 1; conditions: FLAG tagged IL-17A at 2× final concentration (2.5 nM); simple average if tested more than once
From the text: (§1) IL-17A(FLAG-Tagged): IL-17RA(His-Tagged) Binding Disruption Eu-HTRF Assay
(§2) An antibody directed against the FLAG tag of IL-17A (SEQ ID NO:1) is labeled with the HTRF donor chromophore (Europium-cryptate). IL-17A is present as a dimer that is “locked into” this quaternary structure due to the formation of loop-spanning […] disulfide bridges. The construct of IL-17RA used in the assay excludes the outer-membrane portion of the receptor and is fused to a C-terminal 10×His tag (SEQ ID NO:2). An antibody directed against the His tag of the IL-17RA chimera is labeled with the HTRF acceptor chromophore (“D2”). The fluorescence-resonance energy transfer (FRET) depends on the vicinity of the donor chromophore to the acceptor, and interruption of the binding between the IL-17A and IL-17RA causes the reduction/loss of FRET. Therefore, this assay allows to evaluate the compound effect on the binding IL-17A and IL-17RA by monitoring the fluorescence intensity of donor vs acceptor. The assay was run using either Protocol 1 or Protocol 2 described below.
(§3) Protocol 1: 40 nL of 2-fold serial diluted compound solution for total 22 dilution points is added into each well of a 1536-well, white, low-volume, non-binding plate (Greiner #782904), then 2 μl of FLAG tagged IL-17A at 2× final concentration (2.5 nM) in solution of PBS+0.01% Triton-X100 is added to each well. The assay plate is briefly centrifuged then incubated for 1 h at rt. A mixed solution is prepared containing 2×5 nM 10HIS×IL-17RA, 2×2.5 nM Eu-anti-FLAG (CISBIO), 2×5 nM D2-anti-HIS (CISBIO) in PBS+0.01% Triton-X100+200 mM Potassium Fluoride (Sigma 60238) and […] of mix is added to each well of the assay plate. The plate is briefly centrifuged then incubated for 2 h at rt. The HTRF intensities at the wavelength of donor (620 nm) and acceptor (665 nm) are measured using BMG Pherastar. The ratio between intensities at two wavelengths is calculated and plotted against the compound concentration and the data is fitted to a one-site competition model to yield IC50 of the compound.

[2] = target: T1, IL-17A(FLAG-Tagged): IL-17RA(His-Tagged); assay: IL-17A(FLAG-tagged):IL-17RA(His-tagged) binding disruption Eu-HTRF assay, Protocol 2; conditions: FLAG tagged IL-17A at 2× final concentration (1 nM); simple average if tested more than once
From the text: as §1, §2
as §3, with “2.” for “1:”, “nl” for “nL”, “(1” for “(2.5”, “(615” for “(620”

[3] = test system: IL-17A-induced G-CSF production in human normal keratinocyte (NHK); assay: NHK assay: IL-17A-induced G-CSF production in normal human keratinocytes; assay type: cell-based; conditions: Homo sapiens, Keratinocyte; IL-17A 5 ng/mL, 24 h at 37° C., G-CSF by HTRF; simple average if tested more than once
Outline: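 Compound titrations are first mixed with recombinant human IL-17A for 1 h at room temperature. The mixture goes onto adult normal human keratinocytes (final IL-17A 5 ng/mL, 5% FBS, 0.2% DMSO) for 24 h at 37 °C. Secreted G-CSF is then measured by HTRF and IC50 fitted.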

[4] = moderate-to-severe HS, seven of nine patients, open-label pilot-trial; cited from earlier work

T1 sequence (Q16552 with tags, fused parts or gaps K93Q): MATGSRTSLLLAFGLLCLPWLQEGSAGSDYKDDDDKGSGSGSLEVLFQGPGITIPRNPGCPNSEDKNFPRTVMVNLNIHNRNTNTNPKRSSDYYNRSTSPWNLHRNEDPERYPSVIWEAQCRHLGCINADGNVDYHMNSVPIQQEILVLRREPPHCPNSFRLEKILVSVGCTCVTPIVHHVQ

Compound	IC50 [1]	IC50 [2]	pIC50 [3]	patients who achieved HiSCR [4]
COC[C@H](c1cnn2cc([C@@H](NC(=O)c3nonc3C)[C@@H](C)O[C@H](C)C(F)(F)F)nc2c1)N1C[C@@H](C(F)(F)F)NC1=O [Example 27, N-((1R,2R)-1-(7-((S)-2-Methoxy-1-((S)-2-oxo-4-(trifluoromethyl)imidazolidin-1-yl)ethyl)imidazo[1,2-b]pyridazin-2-yl)-2-(((R)-1,1,1-trifluoropropan-2-yl)oxy)propyl)-4-methyl-1,2,5-oxadiazole-3-carboxamide]		< 4 µM	> 5.40	
Cc1nonc1C(=O)N[C@@H](CCC(C)(C)C(F)(F)F)c1cn2ncc(CN3C[C@@](C)(C(F)(F)F)NC3=O)cc2n1 [Example 48, 4-Methyl-N—((S)-5,5,5-trifluoro-4,4-dimethyl-1-(7-(((S)-4-methyl-2-oxo-4-(trifluoromethyl)imidazolidin-1-yl)methyl)imidazo[1,2-b]pyridazin-2-yl)pentyl)-1,2,5-oxadiazole-3-carboxamide]		< 4 µM	> 5.40	
secukinumab				78%

Second part, led by results:

IC50 [1]	IC50 [2]	Compound	pIC50 [3]	patients who achieved HiSCR [4]
< 4 µM	< 4 µM	O=C(N[C@H](c1cn2ncc(CN3C(=O)N[C@@H]4CC(F)(F)C[C@@H]43)cc2n1)C1CCC(F)(F)CC1)c1nonc1C1CC1 (single isomer, unassigned) [Example 7, 4-Cyclopropyl-N—((S)-(7-(((3aR*,6aS*)-5,5-difluoro-2-oxohexahydrocyclopenta[d]imidazol-1(2H)-yl)methyl)imidazo[1,2-b]pyridazin-2-yl)(4,4-difluorocyclohexyl)methyl)-1,2,5-oxadiazole-3-carboxamide]	> 5.40	
	< 4 µM	COC[C@H](c1cnn2cc([C@@H](NC(=O)c3nonc3C)C3CCC(F)(F)CC3)nc2c1)N1C[C@@H](C2(C#N)CC2)NC1=O [Example 25, N—((S)-(7-((S)-1-((R)-4-(1-Cyanocyclopropyl)-2-oxoimidazolidin-1-yl)-2-methoxyethyl)imidazo[1,2-b]pyridazin-2-yl)(4,4-difluorocyclohexyl)methyl)-4-methyl-1,2,5-oxadiazole-3-carboxamide]	> 5.40	
	< 4 µM	COC[C@H](c1cnn2cc([C@H](CCC(C)(C)C(F)(F)F)NC(=O)c3nonc3OC)nc2c1)N1C[C@@](C)(C(F)(F)F)NC1=O [Example 47, 4-Methoxy-N—((S)-5,5,5-trifluoro-1-(7-((S)-2-methoxy-((S)-4-methyl-2-oxo-4-(trifluoromethyl)imidazolidin-1-yl)ethyl)imidazo[1,2-b]pyridazin-2-yl)-4,4-dimethylpentyl)-1,2,5-oxadiazole-3-carboxamide]	> 5.40	

Source: patent US12215111B2, “Imidazopyridazine IL-17 inhibitor compounds” (Janssen Pharmaceutica NV, priority 2021, dated 2025)
